Laboratory results published in patent US20100179130A1, “USE OF PIPERINE AND DERIVATIVES THEREOF FOR THE THERAPY OF NEUROLOGICAL CONDITIONS” (SYNGIS Bioscience GmbH & Co. KG, priority 2007, published 2010).

Experiments:
[1] = test system: neural stem cells; test: In vitro differentiation assay on adult neural stem cells (beta-III-tubulin promoter firefly/Renilla dual luciferase reporter); type: cell-based, rat
Text: The neuroregenerative effect of the compounds according to the present invention can be assayed in vitro by measuring their stimulation of the differentiation of neural stem cells. Therefore, adult neural stem cells have to be isolated and subsequently cultivated in a suitable culture medium. After several passages in vitro the stem cells have to be co-transfected with a DNA construct coding for two discriminable reporter proteins one of them under the control of a constitutive promoter and the other under the control of a beta-III-tubulin promoter. The beta-III-tubulin promoter is induced during the process of neural stem cell differentiation; therefore the reporter protein under the control of this promoter serves as a marker for the stem cell differentiation in such an in vitro dual reporter assay (Schneider et al., J Clin Investigation 2005; 115:2083-2098). The person skilled in the art knows several suitable constitutive promoters such as the SV40-promoter, the TK-promoter, or the CMV-promoter. As discriminable reporter proteins for such a dual reporter assay one can use discriminable luciferases such as firefly luciferase and Renilla luciferase. The transfected cells have to be incubated with the test compound and with a positive and negative controls for normalization and background correction. As a positive control compound one can use retinoic acid (Guan et al., Cell Tissue Res. 2001; 305:171-176; Jacobs et al., Proc. Natl. Acad. Sci. USA 2006; 103:3902-3907), a suitable negative control is the sham treatment of the cells. The neroregenerative activity of the test compound is determined as the ratio of the signal of the beta-III-tubulin promoter controlled reporter versus the signal of the constitutively expressed reporter and is expressed as fold from the control. This assay is suitable to assess the neuroregenerative activity of piperine and derivatives thereof, but also can be used to screen for other potential neuroregenerative compounds. Preferably, such a screening can be used to test compounds which are already known to be suitable as a medicament in terms of its toxicology, bioavailability, solubility, stability etc.
Neural stem cells were isolated from the subventricular zone of 4 week-old male Wistar rats as described (Maurer et al, Proteome Sci. 2003; 1:4). Cells were cultivated in Neurobasal medium (Invitrogen) supplemented with B27 (Invitrogen), 2 mM L-glutamine, 100 units/ml penicillin, 100 units/ml streptomycin, 20 ng/ml […] (EGF), 20 ng/ml fibroblast growth factor-2 (FGF-2), and 2 μg/ml heparin. Once a week the neural stem cells were passaged and experiments were performed after 4 weeks in vitro. For DNA transfection, the cells were dissociated and plated on poly-L-ornithin/laminin-coated 96-well plates at a density of 50.000 cells/well. Cotransfection with the pGL3-p-βIII-tubulin vector (100 ng/well) and the pRL SV40 vector (100 ng/well) was carried out according to the FuGene6 Transfection protocol (Roche). The pRL SV40 vector (Promega) served as an internal control vector.
To amplify the class III β-tubulin gene promoter (fragment −450-+54), rat genomic DNA was used as a template for PCR (Dennis et al., Gene 2002; 294:269-277). The amplified fragment was inserted into the Mlu I/Xho I site of the pGL3-Basic firefly luciferase reporter vector (Promega) to generate the pGL3-p-βIII-tubulin experimental vector.
After overnight incubation, the plate was decanted and given in 8-fold replicates fresh medium containing piperine (Sigma) or vehicle. As a positive control for in vitro differentiation, stem cells were treated by adding 1 μM retinoic acid (Sigma) to the medium missing the mitogens.
After 48 hrs, the cells were harvested to prepare the cellular extracts for luciferase assay following the directions of the manufacturer (Promega). […]

[2] = in vivo; cited from earlier work
[3] = test system: carageenan-induced rat paw edema; conditions: in vivo; cited from earlier work

For `O=C(/C=C/C=C/c1ccc2c(c1)OCO2)N1CCCCC1` [Piperine, (E,E)-1-[5-(1,3-benzodioxol-5-yl)-1-oxo-2,4-pentadienyl]piperidine], the “differentiation of neural stem cells to neurons, dose dependence” value ([1]; 0.2 μM up to 25, 50 or 100 μM, compared with sham and 1 μM retinoic acid) is given as “significantly stimulates”, the fold induction at 1 µM ([1]; Rattus norvegicus, Neural stem cell, 1 μM final compound concentration, in comparison to sham treatment, read-out: Stimulation factor for differentiation of neural stem cells) is given as 2.1 and the “time of peak blood levels after dosing” value [2] is given as 1 to 2 h. The anti-inflammatory activity [3] was “significant anti-inflammatory activity”.
